Experimental data reported in PubChem BioAssay (NCI).
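48-hour exposure; five concentrations; linearly interpolated endpoints. Definition used: TGI = concentration required for complete inhibition of growth.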

Each molecule was assayed on SNB-78 CNS (assay: inhibition of tumour cell growth, NCI panel, 48 h).

| SMILES | TGI [µM] |
| --- | --- |
| COc1cc(C(=O)N2CCc3c([nH]c4c([N+](=O)[O-])c(OC)ccc34)C2C)cc(OC)c1OC (configuration not stated) | > 100 |
| CCN(CC)CCNC(=O)c1ccc(C)c(OCc2ccccc2)c1[N+](=O)[O-] | > 100 |

What follows are molecules tested on OVCAR-5 ovarian (assay: inhibition of tumour cell growth, NCI panel, 48 h).

| SMILES | TGI [µM] |
| --- | --- |
| OCCNCCOc1ccc(/C(=C(/Cl)c2ccccc2)c2ccccc2)cc1 | 28.3 |
| COc1cc(C(=O)C/C(CCC(=O)Nc2ccc(Cl)cc2Cl)=N/NC(=O)C(=O)NN)ccc1O | > 100 |
| c1ccc(CSc2nc3ccccc3nc2-c2cccs2)cc1 | > 100 |
| CC(=O)OCCOCNC(=S)N/N=C/c1ccc(Br)s1 | > 100 |
| CC1CN1c1c(C(=O)/C=C/c2ccc(Cl)cc2)c(-c2ccccc2)nn(C)c1=O (configuration not stated) | > 10 |
| COc1cc(C(=O)N2CCc3c([nH]c4c([N+](=O)[O-])c(OC)ccc34)C2C)cc(OC)c1OC (configuration not stated) | > 100 |
| CCN(CC)CCNC(=O)c1ccc(C)c(OCc2ccccc2)c1[N+](=O)[O-] | 81.3 |

What follows are molecules tested on HCT-116 colon (assay: inhibition of tumour cell growth, NCI panel, 48 h).

| SMILES | TGI [µM] |
| --- | --- |
| OCCNCCOc1ccc(/C(=C(/Cl)c2ccccc2)c2ccccc2)cc1 | 20.2 |
| COc1cc(C(=O)C/C(CCC(=O)Nc2ccc(Cl)cc2Cl)=N/NC(=O)C(=O)NN)ccc1O | > 100 |
| c1ccc(CSc2nc3ccccc3nc2-c2cccs2)cc1 | > 100 |
| CC(=O)OCCOCNC(=S)N/N=C/c1ccc(Br)s1 | > 100 |
| CC1CN1c1c(C(=O)/C=C/c2ccc(Cl)cc2)c(-c2ccccc2)nn(C)c1=O (configuration not stated) | 6.47 |
| COc1cc(C(=O)N2CCc3c([nH]c4c([N+](=O)[O-])c(OC)ccc34)C2C)cc(OC)c1OC (configuration not stated) | > 100 |
| CCN(CC)CCNC(=O)c1ccc(C)c(OCc2ccccc2)c1[N+](=O)[O-] | 47.8 |

What follows are molecules tested on NCI-H226 lung (assay: inhibition of tumour cell growth, NCI panel, 48 h).

| SMILES | TGI [µM] |
| --- | --- |
| OCCNCCOc1ccc(/C(=C(/Cl)c2ccccc2)c2ccccc2)cc1 | 45 |
| COc1cc(C(=O)C/C(CCC(=O)Nc2ccc(Cl)cc2Cl)=N/NC(=O)C(=O)NN)ccc1O | > 100 |
| c1ccc(CSc2nc3ccccc3nc2-c2cccs2)cc1 | > 100 |
| CC(=O)OCCOCNC(=S)N/N=C/c1ccc(Br)s1 | > 100 |
| CC1CN1c1c(C(=O)/C=C/c2ccc(Cl)cc2)c(-c2ccccc2)nn(C)c1=O (configuration not stated) | > 10 |
| COc1cc(C(=O)N2CCc3c([nH]c4c([N+](=O)[O-])c(OC)ccc34)C2C)cc(OC)c1OC (configuration not stated) | > 100 |
| CCN(CC)CCNC(=O)c1ccc(C)c(OCc2ccccc2)c1[N+](=O)[O-] | 90.3 |

The molecules below were run on KM12 colon (assay: inhibition of tumour cell growth, NCI panel, 48 h).

| SMILES | TGI [µM] |
| --- | --- |
| OCCNCCOc1ccc(/C(=C(/Cl)c2ccccc2)c2ccccc2)cc1 | 13.5 |
| COc1cc(C(=O)C/C(CCC(=O)Nc2ccc(Cl)cc2Cl)=N/NC(=O)C(=O)NN)ccc1O | > 100 |
| c1ccc(CSc2nc3ccccc3nc2-c2cccs2)cc1 | > 100 |
| CC(=O)OCCOCNC(=S)N/N=C/c1ccc(Br)s1 | > 100 |
| CC1CN1c1c(C(=O)/C=C/c2ccc(Cl)cc2)c(-c2ccccc2)nn(C)c1=O (configuration not stated) | > 10 |
| COc1cc(C(=O)N2CCc3c([nH]c4c([N+](=O)[O-])c(OC)ccc34)C2C)cc(OC)c1OC (configuration not stated) | > 100 |
| CCN(CC)CCNC(=O)c1ccc(C)c(OCc2ccccc2)c1[N+](=O)[O-] | > 81.1 |

Each molecule was assayed on SF-539 CNS (assay: inhibition of tumour cell growth, NCI panel, 48 h).

| SMILES | TGI [µM] |
| --- | --- |
| OCCNCCOc1ccc(/C(=C(/Cl)c2ccccc2)c2ccccc2)cc1 | 26.6 |
| COc1cc(C(=O)C/C(CCC(=O)Nc2ccc(Cl)cc2Cl)=N/NC(=O)C(=O)NN)ccc1O | > 100 |
| c1ccc(CSc2nc3ccccc3nc2-c2cccs2)cc1 | > 100 |
| CC(=O)OCCOCNC(=S)N/N=C/c1ccc(Br)s1 | > 100 |
| CC1CN1c1c(C(=O)/C=C/c2ccc(Cl)cc2)c(-c2ccccc2)nn(C)c1=O (configuration not stated) | 4.14 |
| COc1cc(C(=O)N2CCc3c([nH]c4c([N+](=O)[O-])c(OC)ccc34)C2C)cc(OC)c1OC (configuration not stated) | > 100 |
| CCN(CC)CCNC(=O)c1ccc(C)c(OCc2ccccc2)c1[N+](=O)[O-] | 70.9 |

What follows are molecules tested on SF-295 CNS (assay: inhibition of tumour cell growth, NCI panel, 48 h).

| SMILES | TGI [µM] |
| --- | --- |
| OCCNCCOc1ccc(/C(=C(/Cl)c2ccccc2)c2ccccc2)cc1 | 28.5 |
| COc1cc(C(=O)C/C(CCC(=O)Nc2ccc(Cl)cc2Cl)=N/NC(=O)C(=O)NN)ccc1O | > 100 |
| c1ccc(CSc2nc3ccccc3nc2-c2cccs2)cc1 | > 100 |
| CC(=O)OCCOCNC(=S)N/N=C/c1ccc(Br)s1 | > 100 |
| CC1CN1c1c(C(=O)/C=C/c2ccc(Cl)cc2)c(-c2ccccc2)nn(C)c1=O (configuration not stated) | > 10 |
| COc1cc(C(=O)N2CCc3c([nH]c4c([N+](=O)[O-])c(OC)ccc34)C2C)cc(OC)c1OC (configuration not stated) | > 100 |
| CCN(CC)CCNC(=O)c1ccc(C)c(OCc2ccccc2)c1[N+](=O)[O-] | 55.8 |

What follows are molecules tested on MDA-MB-231 breast (assay: inhibition of tumour cell growth, NCI panel, 48 h).

| SMILES | TGI [µM] |
| --- | --- |
| CCN(CC)CCNC(=O)c1ccc(C)c(OCc2ccccc2)c1[N+](=O)[O-] | > 100 |

Each molecule was assayed on LXFL 529 NSCLC (assay: inhibition of tumour cell growth, NCI panel, 48 h).

| SMILES | TGI [µM] |
| --- | --- |
| OCCNCCOc1ccc(/C(=C(/Cl)c2ccccc2)c2ccccc2)cc1 | 19.7 |
| COc1cc(C(=O)C/C(CCC(=O)Nc2ccc(Cl)cc2Cl)=N/NC(=O)C(=O)NN)ccc1O | > 100 |
| c1ccc(CSc2nc3ccccc3nc2-c2cccs2)cc1 | > 100 |
| CC(=O)OCCOCNC(=S)N/N=C/c1ccc(Br)s1 | > 100 |
| CC1CN1c1c(C(=O)/C=C/c2ccc(Cl)cc2)c(-c2ccccc2)nn(C)c1=O (configuration not stated) | 5.13 |
| COc1cc(C(=O)N2CCc3c([nH]c4c([N+](=O)[O-])c(OC)ccc34)C2C)cc(OC)c1OC (configuration not stated) | > 100 |
| CCN(CC)CCNC(=O)c1ccc(C)c(OCc2ccccc2)c1[N+](=O)[O-] | 33.9 |

What follows are molecules tested on MOLT-4 leukemia (assay: inhibition of tumour cell growth, NCI panel, 48 h).

| SMILES | TGI [µM] |
| --- | --- |
| OCCNCCOc1ccc(/C(=C(/Cl)c2ccccc2)c2ccccc2)cc1 | 17.2 |
| c1ccc(CSc2nc3ccccc3nc2-c2cccs2)cc1 | > 100 |
| CC(=O)OCCOCNC(=S)N/N=C/c1ccc(Br)s1 | > 100 |
| CC1CN1c1c(C(=O)/C=C/c2ccc(Cl)cc2)c(-c2ccccc2)nn(C)c1=O (configuration not stated) | 8.02 |
| COc1cc(C(=O)N2CCc3c([nH]c4c([N+](=O)[O-])c(OC)ccc34)C2C)cc(OC)c1OC (configuration not stated) | > 100 |
| CCN(CC)CCNC(=O)c1ccc(C)c(OCc2ccccc2)c1[N+](=O)[O-] | 77.8 |

These molecules were tested on COLO 205 colon (assay: inhibition of tumour cell growth, NCI panel, 48 h).

| SMILES | TGI [µM] |
| --- | --- |
| OCCNCCOc1ccc(/C(=C(/Cl)c2ccccc2)c2ccccc2)cc1 | 22.8 |
| COc1cc(C(=O)C/C(CCC(=O)Nc2ccc(Cl)cc2Cl)=N/NC(=O)C(=O)NN)ccc1O | > 100 |
| c1ccc(CSc2nc3ccccc3nc2-c2cccs2)cc1 | > 100 |
| CC(=O)OCCOCNC(=S)N/N=C/c1ccc(Br)s1 | > 100 |
| CC1CN1c1c(C(=O)/C=C/c2ccc(Cl)cc2)c(-c2ccccc2)nn(C)c1=O (configuration not stated) | 3.67 |
| COc1cc(C(=O)N2CCc3c([nH]c4c([N+](=O)[O-])c(OC)ccc34)C2C)cc(OC)c1OC (configuration not stated) | > 100 |
| CCN(CC)CCNC(=O)c1ccc(C)c(OCc2ccccc2)c1[N+](=O)[O-] | 30.8 |

These molecules were tested on CAKI-1 renal (assay: inhibition of tumour cell growth, NCI panel, 48 h).

| SMILES | TGI [µM] |
| --- | --- |
| OCCNCCOc1ccc(/C(=C(/Cl)c2ccccc2)c2ccccc2)cc1 | 25.7 |
| COc1cc(C(=O)C/C(CCC(=O)Nc2ccc(Cl)cc2Cl)=N/NC(=O)C(=O)NN)ccc1O | > 100 |
| CC1CN1c1c(C(=O)/C=C/c2ccc(Cl)cc2)c(-c2ccccc2)nn(C)c1=O (configuration not stated) | > 10 |
| COc1cc(C(=O)N2CCc3c([nH]c4c([N+](=O)[O-])c(OC)ccc34)C2C)cc(OC)c1OC (configuration not stated) | > 100 |
| CCN(CC)CCNC(=O)c1ccc(C)c(OCc2ccccc2)c1[N+](=O)[O-] | > 71.1 |

These molecules were tested on ACHN renal (assay: inhibition of tumour cell growth, NCI panel, 48 h).

| SMILES | TGI [µM] |
| --- | --- |
| COc1cc(C(=O)C/C(CCC(=O)Nc2ccc(Cl)cc2Cl)=N/NC(=O)C(=O)NN)ccc1O | > 100 |
| c1ccc(CSc2nc3ccccc3nc2-c2cccs2)cc1 | > 100 |
| CC(=O)OCCOCNC(=S)N/N=C/c1ccc(Br)s1 | > 100 |
| CC1CN1c1c(C(=O)/C=C/c2ccc(Cl)cc2)c(-c2ccccc2)nn(C)c1=O (configuration not stated) | 5.27 |
| COc1cc(C(=O)N2CCc3c([nH]c4c([N+](=O)[O-])c(OC)ccc34)C2C)cc(OC)c1OC (configuration not stated) | > 100 |
| CCN(CC)CCNC(=O)c1ccc(C)c(OCc2ccccc2)c1[N+](=O)[O-] | > 89.6 |

The molecules below were run on M14 melanoma (assay: inhibition of tumour cell growth, NCI panel, 48 h).

| SMILES | TGI [µM] |
| --- | --- |
| OCCNCCOc1ccc(/C(=C(/Cl)c2ccccc2)c2ccccc2)cc1 | 3.59 |
| COc1cc(C(=O)C/C(CCC(=O)Nc2ccc(Cl)cc2Cl)=N/NC(=O)C(=O)NN)ccc1O | > 100 |
| c1ccc(CSc2nc3ccccc3nc2-c2cccs2)cc1 | > 100 |
| CC(=O)OCCOCNC(=S)N/N=C/c1ccc(Br)s1 | > 100 |
| CC1CN1c1c(C(=O)/C=C/c2ccc(Cl)cc2)c(-c2ccccc2)nn(C)c1=O (configuration not stated) | 5.63 |
| COc1cc(C(=O)N2CCc3c([nH]c4c([N+](=O)[O-])c(OC)ccc34)C2C)cc(OC)c1OC (configuration not stated) | > 100 |
| CCN(CC)CCNC(=O)c1ccc(C)c(OCc2ccccc2)c1[N+](=O)[O-] | 32.3 |

The molecules below were run on EKVX NSCLC (assay: inhibition of tumour cell growth, NCI panel, 48 h).

| SMILES | TGI [µM] |
| --- | --- |
| OCCNCCOc1ccc(/C(=C(/Cl)c2ccccc2)c2ccccc2)cc1 | 28.6 |
| COc1cc(C(=O)C/C(CCC(=O)Nc2ccc(Cl)cc2Cl)=N/NC(=O)C(=O)NN)ccc1O | > 100 |
| c1ccc(CSc2nc3ccccc3nc2-c2cccs2)cc1 | > 100 |
| CC(=O)OCCOCNC(=S)N/N=C/c1ccc(Br)s1 | > 100 |
| CC1CN1c1c(C(=O)/C=C/c2ccc(Cl)cc2)c(-c2ccccc2)nn(C)c1=O (configuration not stated) | > 10 |
| COc1cc(C(=O)N2CCc3c([nH]c4c([N+](=O)[O-])c(OC)ccc34)C2C)cc(OC)c1OC (configuration not stated) | > 100 |
| CCN(CC)CCNC(=O)c1ccc(C)c(OCc2ccccc2)c1[N+](=O)[O-] | > 100 |

Each molecule was assayed on OVCAR-3 ovarian (assay: inhibition of tumour cell growth, NCI panel, 48 h).

| SMILES | TGI [µM] |
| --- | --- |
| OCCNCCOc1ccc(/C(=C(/Cl)c2ccccc2)c2ccccc2)cc1 | 24.8 |
| COc1cc(C(=O)C/C(CCC(=O)Nc2ccc(Cl)cc2Cl)=N/NC(=O)C(=O)NN)ccc1O | > 100 |
| c1ccc(CSc2nc3ccccc3nc2-c2cccs2)cc1 | > 100 |
| CC(=O)OCCOCNC(=S)N/N=C/c1ccc(Br)s1 | > 100 |
| CC1CN1c1c(C(=O)/C=C/c2ccc(Cl)cc2)c(-c2ccccc2)nn(C)c1=O (configuration not stated) | 6.79 |
| COc1cc(C(=O)N2CCc3c([nH]c4c([N+](=O)[O-])c(OC)ccc34)C2C)cc(OC)c1OC (configuration not stated) | > 100 |
| CCN(CC)CCNC(=O)c1ccc(C)c(OCc2ccccc2)c1[N+](=O)[O-] | > 75.8 |
